In patent US5543415A, “Antidepressants” (Kyowa Hakko Kogyo Co., Ltd., priority 1992, dated 1996):

System: ddY-strain male mice
Assay: Acute Toxicity Test (minimum lethal dose, oral)
Type: in vivo
Details: seven days after administration
Protocol: Test compounds were orally administered to groups of ddY-strain male mice weighing 20±1 g, each group consisting of three mice. Seven days after the administration, minimum lethal dose (MLD) of each compound was determined by observing the mortality.

| Structure (SMILES) | MLD (minimum lethal dose) [mg/kg] |
| --- | --- |
| CCn1c(=O)c2c(nc(/C=C/c3cccc(OC(F)(F)F)c3)n2C)n(CC)c1=O [Compound 144, (E)-1,3-Diethyl-7-methyl-8-(3-trifluoromethoxystyryl)xanthine] | > 100 |
| CCn1c(=O)c2[nH]c(/C=C/c3ccc(OCOC)cc3)nc2n(CC)c1=O [Compound 145, (E)-1,3-Diethyl-8-(4-methoxymethoxystyryl)xanthine] | > 100 |
| CCn1c(=O)c2c(nc(/C=C/c3ccc(OCOC)cc3)n2C)n(CC)c1=O [Compound 146, (E)-1,3-Diethyl-8-(4-methoxymethoxystyryl)-7-methylxanthine] | > 100 |
| CCCCOc1ccc(/C=C/c2nc3c([nH]2)c(=O)n(CC)c(=O)n3CC)cc1 [Compound 147, (E)-8-(4-Butoxystyryl)-1,3-diethylxanthine] | > 100 |
| CCn1c(=O)c2[nH]c(/C=C/c3ccc(F)cc3)nc2n(CC)c1=O [Compound 149, (E)-1,3-Diethyl-8-(4-fluorostyryl)xanthine] | > 100 |
| CCn1c(=O)c2[nH]c(/C=C/c3ccc(C)cc3)nc2n(CC)c1=O [Compound 151, (E)-1,3-Diethyl-8-(4-methylstyryl)xanthine] | > 100 |
| CCn1c(=O)c2[nH]c(/C=C/c3cc(C(F)(F)F)cc(C(F)(F)F)c3)nc2n(CC)c1=O [Compound 153, (E)-8-[3,5-Bis(trifluoromethyl)styryl]-1,3-diethylxanthine] | > 100 |
| CCn1c(=O)c2c(nc(/C=C/c3cc(C(F)(F)F)cc(C(F)(F)F)c3)n2C)n(CC)c1=O [Compound 154, (E)-8-[3,5-Bis (trifluoromethyl)styryl]-1,3-diethyl-7-methylxanthine] | > 100 |
| CCn1c(=O)c2[nH]c(/C=C/c3cc(F)cc(F)c3)nc2n(CC)c1=O [Compound 155, (E)-8-(3,5-Difluorostyryl)-1,3-diethylxanthine] | > 100 |
| CCn1c(=O)c2c(nc(/C=C/c3cc(F)cc(F)c3)n2C)n(CC)c1=O [Compound 156, (E)-8-(3,5-Difluorostyryl)-1,3-diethyl-7-methylxanthine] | > 100 |
| CCn1c(=O)c2[nH]c(/C=C/c3ccccc3OC)nc2n(CC)c1=O [Compound 157, (E)-1,3-Diethyl-8-(2-methoxystyryl)xanthine] | > 100 |
| CCn1c(=O)c2c(nc(/C=C/c3ccccc3OC)n2C)n(CC)c1=O [Compound 158, (E)-1,3-Diethyl-8-(2-methoxystyryl)-7-methylxanthine] | > 100 |
| CCn1c(=O)c2[nH]c(/C=C/c3cccc([N+](=O)[O-])c3)nc2n(CC)c1=O [Compound 159, (E)-1,3-Diethyl-8-(3-nitrostyryl)xanthine] | > 100 |
| CCn1c(=O)c2c(nc(/C=C/c3cccc([N+](=O)[O-])c3)n2C)n(CC)c1=O [Compound 160, (E)-1,3-Diethyl-7-methyl-8-(3-nitrostyryl)xanthine] | > 100 |
| CCn1c(=O)c2[nH]c(/C=C/c3cccc(Br)c3)nc2n(CC)c1=O [Compound 161, (E)-8-(3-Bromostyryl)-1,3-diethylxanthine] | > 100 |
| CCn1c(=O)c2[nH]c(/C=C/c3cccc(C(F)(F)F)c3)nc2n(CC)c1=O [Compound 163, (E)-1,3-Diethyl-8-(3-trifluoromethylstyryl)xanthine] | > 100 |
| CCn1c(=O)c2c(nc(/C=C/c3cccc(C(F)(F)F)c3)n2C)n(CC)c1=O [Compound 164, (E)-1,3-Diethyl-7-methyl-8-(3-trifluoromethylstyryl)xanthine] | > 100 |
| CCn1c(=O)c2[nH]c(/C=C/c3cc4c(cc3Br)OCO4)nc2n(CC)c1=O [Compound 165, (E)-8-(2-Bromo-4,5-methylenedioxystyryl)-1,3-diethylxanthine] | > 100 |
| CCn1c(=O)c2c(nc(/C=C/c3cc4c(cc3Br)OCO4)n2C)n(CC)c1=O [Compound 166, (E)-8-(2-Bromo-4,5-methylenedioxystyryl)-1,3-diethyl-7-methylxanthine] | > 100 |
| CCn1c(=O)c2[nH]c(/C=C/c3ccccc3F)nc2n(CC)c1=O [Compound 167, (E)-1,3-Diethyl-8-(2-fluorostyryl)xanthine] | > 100 |

| Structure (SMILES) | MLD (minimum lethal dose) [mg/kg] |
| --- | --- |
| CCn1c(=O)c2[nH]c(/C=C/c3ccc(N(C)C)cc3)nc2n(CC)c1=O [Compound 169, (E)-8-[4-(N,N-Dimethylamino)styryl]-1,3-diethylxanthine] | > 100 |
| CCn1c(=O)c2[nH]c(/C=C/c3ccc(-c4ccccc4)cc3)nc2n(CC)c1=O [Compound 170, (E)-1,3-Diethyl-8-(4-phenylstyryl)xanthine] | > 100 |
| CCn1c(=O)c2c(nc(/C=C/c3ccc(-c4ccccc4)cc3)n2C)n(CC)c1=O [Compound 171, (E)-1,3-Diethyl-7-methyl-8-(4-phenylstyryl)xanthine] | > 100 |
| CCn1c(=O)c2[nH]c(/C=C/c3ccc(OC)c(F)c3)nc2n(CC)c1=O [Compound 172, (E)-1,3-Diethyl-8-(3-fluoro-4-methoxystyryl)xanthine] | > 100 |
| CCn1c(=O)c2[nH]c(/C=C/c3ccc(OC)c(C)c3)nc2n(CC)c1=O [Compound 174, (E)-1,3-Diethyl-8-(4-methoxy-3-methylstyryl)xanthine] | > 100 |
| CCn1c(=O)c2[nH]c(/C=C/c3ccc(F)c(Cl)c3)nc2n(CC)c1=O [Compound 176, (E)-8-(3-Chloro-4-fluorostyryl)-1,3-diethylxanthine] | > 100 |
| CCn1c(=O)c2c(nc(/C=C/c3ccc(F)c(Cl)c3)n2C)n(CC)c1=O [Compound 177, (E)-8-(3-Chloro-4-fluorostyryl)-1,3-diethyl-7-methylxanthine] | > 100 |
| CCn1c(=O)c2[nH]c(/C=C/c3cc(OC)c4c(c3)OCO4)nc2n(CC)c1=O [Compound 178, (E)-1,3-Diethyl-8-(3-methoxy-4,5-methylenedioxystyryl)xanthine] | > 100 |
| CCn1c(=O)c2[nH]c(/C=C/c3cccc(F)c3C)nc2n(CC)c1=O [Compound 180, (E)-1,3-Diethyl-8-(3-fluoro-2-methylstyryl)xanthine] | > 100 |
| CCn1c(=O)c2c(nc(/C=C/c3ccc(O)c(O)c3)n2C)n(CC)c1=O [Compound 182, (E)-8-(3,4-Dihydroxystyryl)-1,3-diethyl-7-methylxanthine] | > 100 |
| CCn1c(=O)c2c(nc(/C=C/c3ccc(OC)c(O)c3)n2C)n(CC)c1=O [Compound 183, (E)-1,3-Diethyl-8-(3-hydroxy-4-methoxystyryl)-7-methylxanthine] | > 100 |
| CCn1c(=O)c2c(nc(/C=C/c3ccc(OCCCCBr)cc3)n2C)n(CC)c1=O [Compound 186, (E)-8-[4-(4-Bromobutoxy)styryl]-1,3-diethyl-7-methylxanthine] | > 100 |
| CCn1c(=O)c2c(nc(/C=C/c3ccc(OCCCCN=[N+]=[N-])cc3)n2C)n(CC)c1=O [Compound 187, (E)-8-[4-(4-Azidobutoxy)styryl]-1,3-diethyl-7-methylxanthine] | > 100 |
| CCn1c(=O)c2c(nc(/C=C/c3ccc(OCCCCN)cc3)n2C)n(CC)c1=O [Compound 188, (E)-8-[4-(4-Aminobutoxy)styryl]-1,3-diethyl-7-methylxanthine] | > 100 |
| CCOC(=O)COc1ccc(/C=C/c2nc3c(c(=O)n(CC)c(=O)n3CC)n2C)cc1 [Compound 189, (E)-8-(4-Ethoxycarbonylmethoxystyryl)-1,3-diethyl-7-methylxanthine] | > 100 |
| CCn1c(=O)c2c(nc(/C=C/c3ccc(OCC(=O)O)cc3)n2C)n(CC)c1=O [Compound 190, (E)-8-(4-Carboxymethoxystyryl)-1,3-diethyl-7-methylxanthine] | > 100 |
| CCn1c(=O)c2[nH]c(/C=C/c3cccc(Oc4ccccc4)c3)nc2n(CC)c1=O [Compound 191, (E)-1,3-Diethyl-8-(3-phenoxystyryl)xanthine] | > 100 |
| CCn1c(=O)c2c(nc(/C=C/c3cccc(Oc4ccccc4)c3)n2C)n(CC)c1=O [Compound 192, (E)-1,3-Diethyl-7-methyl-8-(3-phenoxystyryl)xanthine] | > 100 |
| CCn1c(=O)c2[nH]c(/C=C/c3ccc(O)cc3)nc2n(CC)c1=O [Compound 193, (E)-1,3-Diethyl-8-(4-hydroxystyryl)xanthine] | > 100 |
| CCn1c(=O)c2c(nc(/C=C/c3ccc(O)c(C)c3C)n2C)n(CC)c1=O [Compound 194, (E)-1,3-Diethyl-8-(4-hydroxy-2,3-dimethylstyryl)-7-methylxanthine] | > 100 |

System: clonidine-induced aggressive behavior
Assay: Effect on Clonidine-Induced Aggressive Behavior (number of biting attacks during 30 minutes)
Type: in vivo, male ddY mice
Details: 10 mg/kg, po; 60 min before clonidine 20 mg/kg ip; 30 min count
Protocol: The effect of a test compound on the aggressive behavior induced by intraperitoneal administration of clonidine was investigated. […] The experiment was performed by using several groups of male ddY mice (weighing 20 to 25 g, Japan SLC), each group consisting of two mice. The test compound was suspended in injectable distilled water (Otsuka Pharmaceutical Co., Ltd.) containing Tween 80 [polyoxyethylene (20) sorbitan monooleate]. Clonidine hydrochloride (Sigma Co.) was dissolved in physiological saline solution (Otsuka Pharmaceutical Co., Ltd.). The test compound suspension and the control suspension were orally administered to separate groups of the mice (0.1 ml per 10 g of body weight). Sixty minutes after the oral administration of the test compound, clonidine hydrochloride (20 mg/kg) was intraperitoneally injected. The number of biting attacks during 30 minutes after clonidine treatment was counted. The effect of the compound was evaluated by comparing the average number of biting attacks of the test compound-administered groups with that of control groups (Statistical comparison: Student's t-test).

| Structure (SMILES) | Number of the Biting Attacks (mean ± S.E.M.), Test Compound-Treated Group |
| --- | --- |
| Cn1c(=O)c2[nH]cnc2n(C)c1=O [theophylline, reference compound] | 18.6 ± 3.58 |

Same assay, conditions: Mus musculus, po, read-out: Number of the Attacks of Test Compound-Treated Group/Number of the Attacks of Control Group

| Structure (SMILES) | response vs control in vivo at 10 mg/kg [%] |
| --- | --- |
| Cn1c(=O)c2[nH]cnc2n(C)c1=O [theophylline, reference compound] | 520 |
